Results from patent US7632972B2, “Compounds and methods for treatment of cancer and modulation of programmed cell death for melanoma and other cancer cells” (The Board of Trustees of the University of Illionis, priority 2003, dated 2009).

Assays:
human tumor cell lines = test: NCI DTP 60 human tumor cell line screen (whole panel or cell lines not listed singly); assay type: cell-based; details: NCI panel of human cancer cell lines
Text: Selected compounds were identified for additional testing against a panel of human cancer cell lines maintained by the National Cancer Institute.
Potential anti-cancer agents are screened, and in certain instances were screened, using a screening system provided and performed by the National Cancer Institute (NCl). See http://dtp.nci.nih.gov/docs/misc/common_files/submit_compounds.html. The Developmental Therapeutics Program (DTP) of NCl operates an anti-cancer screening program. The program accepts both natural and synthetic compounds. For screening of natural products extracts, the Natural Products Branch can be contacted.
The operation of this screen utilizes 60 different human tumor cell lines, representing leukemia, melanoma and cancers of the lung, colon, brain, ovary, breast, prostate, and kidney. The aim is to prioritize for further evaluation, synthetic compounds or natural product samples showing selective growth inhibition or cell killing of particular tumor cell lines. […]
Following drug addition, the plates are incubated for an additional 48 h at 37° C., 5% CO2, 95% air, and 100% relative humidity. […] Bound stain is subsequently solubilized with 10 mM trizma base, and the absorbance is read on an automated plate reader at a wavelength of 515 nm. […]

MOLT-4 = test: NCI 60 cell line screen (SRB), Leukemia; assay type: cell-based, human
Text: (§1) The operation of this screen utilizes 60 different human tumor cell lines, representing leukemia, melanoma and cancers of the lung, colon, brain, ovary, breast, prostate, and kidney. The aim is to prioritize for further evaluation, synthetic compounds or natural product samples showing selective growth inhibition or cell killing of particular tumor cell lines. This screen is unique in that the complexity of a 60 cell line dose response produced by a given compound results in a biological response pattern which can be utilized in pattern recognition algorithms. Using these algorithms, it is possible to assign a putative mechanism of action to a test compound, or to determine that the response pattern is unique and not similar to that of any of the standard prototype compounds included in the NCl database (see DTP Overview tab). In addition, following characterization of various cellular molecular targets in the 60 cell lines, it may be possible to select compounds most likely to interact with a specific molecular target.
(§2) The human tumor cell lines of the cancer screening panel are grown in RPMI 1640 medium containing 5% fetal bovine serum and 2 mM L-glutamine. For a typical screening experiment, cells are inoculated into 96 well microtiter plates in 100 μL at plating densities ranging from 5,000 to 40,000 cells/well depending on the doubling time of individual cell lines. After cell inoculation, the microtiter plates are incubated at 37° C., 5% CO2, 95% air and 100% relative humidity for 24 h prior to addition of experimental drugs.
(§3) After 24 h, two plates of each cell line are fixed in situ with TCA, to represent a measurement of the cell population for each cell line at the time of drug addition (Tz). Experimental drugs are solubilized in dimethyl sulfoxide at 400-fold the desired final maximum test concentration and stored frozen prior to use. At the time of drug addition, an aliquot of frozen concentrate is thawed and diluted to twice the desired final maximum test concentration with complete medium containing 50 μg/ml gentamicin. Additional four, 10-fold or ½ log serial dilutions are made to provide a total of five drug concentrations plus control. Aliquots of 100 μl of these different drug dilutions are added to the appropriate microtiter wells already containing 100 μl of medium, resulting in the required final drug concentrations.
(§4) Following drug addition, the plates are incubated for an additional 48 h at 37° C., 5% CO2, 95% air, and 100% relative humidity. For adherent cells, the assay is terminated by the addition of cold TCA. Cells are fixed in situ by the gentle addition of 50 μl of cold 50% (w/v) TCA (final concentration, 10% TCA) and incubated for 60 minutes at 4° C. The supernatant is discarded, and the plates are washed five times with tap water and air dried. Sulforhodamine B (SRB) solution (100 μl) at 0.4% (w/v) in 1% acetic acid is added to each well, and plates are incubated for 10 minutes at room temperature. After staining, unbound dye is removed by washing five times with 1% acetic acid and the plates are air dried. Bound stain is subsequently solubilized with 10 mM trizma base, and the absorbance is read on an automated plate reader at a wavelength of 515 nm. For suspension cells, the methodology is the same except that the assay is terminated by fixing settled cells at the bottom of the wells by gently adding 50 μl of 80% TCA (final concentration, 16% TCA). Using the seven absorbance measurements [time zero, (Tz), control growth, (C), and test growth in the presence of drug at the five concentration levels (Ti)], the percentage growth is calculated at each of the drug concentrations levels. Percentage growth inhibition is calculated as: [(Ti−Tz)/(C−Tz)]×100 for concentrations for which Ti>/=Tz [(Ti−Tz)/Tz]×100 for concentrations for which Ti<Tz.
(§5) Three dose response parameters are calculated for each experimental agent. […]

RPMI-8226 = test: NCI 60 cell line screen (SRB), Leukemia; assay type: cell-based, human
Text: as §1, §2, §3, §4, §5

SF-268 = test: NCI 60 cell line screen (SRB), CNS Cancer; assay type: cell-based, human
Text: as §1, §2, §3, §4, §5

SF-295 = test: NCI 60 cell line screen (SRB), CNS Cancer; assay type: cell-based, human
Text: as §1, §2, §3, §4, §5

U251 = test: NCI 60 cell line screen (SRB), CNS Cancer; assay type: cell-based, human
Text: as §1, §2, §3, §4, §5

COc1cccc(CCNC(=O)CC(c2ccccc2)(c2ccccc2)c2ccccc2)c1 [Compound Z3]
activity against colon cancer cells (human tumor cell lines): significant activity | activity against melanoma cells (human tumor cell lines): significant activity | GI50 (MOLT-4; MOLT-4): 6.01 µM | TGI (MOLT-4; MOLT-4): >1.00E−04 | Percent Growth (MOLT-4; MOLT-4, Log10 Concentration −4.0): 33% | Percent Growth (MOLT-4; MOLT-4, Log10 Concentration −5.0): 34% | Percent Growth (MOLT-4; MOLT-4, Log10 Concentration −6.0): 107% | Percent Growth (MOLT-4; MOLT-4, Log10 Concentration −7.0): 123% | Percent Growth (MOLT-4; MOLT-4, Log10 Concentration −8.0): 116% | CC50 (MOLT-4; MOLT-4, read-out: LC50 (the source's name)): > 100 µM | GI50 (RPMI-8226; RPMI-8226): 4.98 µM | TGI (RPMI-8226; RPMI-8226): >1.00E−04 | Percent Growth (RPMI-8226; RPMI-8226, Log10 Concentration −4.0): 24% | Percent Growth (RPMI-8226; RPMI-8226, Log10 Concentration −5.0): 29% | Percent Growth (RPMI-8226; RPMI-8226, Log10 Concentration −6.0): 98% | Percent Growth (RPMI-8226; RPMI-8226, Log10 Concentration −7.0): 100% | Percent Growth (RPMI-8226; RPMI-8226, Log10 Concentration −8.0): 92% | CC50 (RPMI-8226; RPMI-8226, read-out: LC50 (the source's name)): > 100 µM | GI50 (SF-268; SF-268): 15 µM | TGI (SF-268; SF-268): >1.00E−04 | Percent Growth (SF-268; SF-268, Log10 Concentration −4.0): 38% | Percent Growth (SF-268; SF-268, Log10 Concentration −5.0): 53% | Percent Growth (SF-268; SF-268, Log10 Concentration −6.0): 87% | Percent Growth (SF-268; SF-268, Log10 Concentration −7.0): 97% | Percent Growth (SF-268; SF-268, Log10 Concentration −8.0): 90% | CC50 (SF-268; SF-268, read-out: LC50 (the source's name)): > 100 µM | GI50 (SF-295; SF-295): 4.36 µM | TGI (SF-295; SF-295): >1.00E−04 | Percent Growth (SF-295; SF-295, Log10 Concentration −4.0): 15% | Percent Growth (SF-295; SF-295, Log10 Concentration −5.0): 27% | Percent Growth (SF-295; SF-295, Log10 Concentration −6.0): 91% | Percent Growth (SF-295; SF-295, Log10 Concentration −7.0): 113% | Percent Growth (SF-295; SF-295, Log10 Concentration −8.0): 100% | CC50 (SF-295; SF-295, read-out: LC50 (the source's name)): > 100 µM | GI50 (U251; U251): 4.85 µM | TGI (U251; U251): 5.56E−05 | Percent Growth (U251; U251, Log10 Concentration −4.0): −10% | Percent Growth (U251; U251, Log10 Concentration −5.0): 29% | Percent Growth (U251; U251, Log10 Concentration −6.0): 96% | Percent Growth (U251; U251, Log10 Concentration −7.0): 107% | Percent Growth (U251; U251, Log10 Concentration −8.0): 99% | CC50 (U251; U251, read-out: LC50 (the source's name)): > 100 µM
